Experimental data: patent EP0533352A2 (LYNXVALE LIMITED, priority 1991, dated 1993)
Read-outs that look alike come from different tables or passages of the source.

Legend:
[1] = test system: Rabbit urinary bladder smooth muscle strips; assay: Nerve mediated contractions of rabbit urinary bladder muscle strips induced by electrical field stimulation; format: cell-based; details: for effect on the frequency response curve: 1 to 40 Hz
[2] = test system: carbachol (5x10⁻⁶M) induced muscle contraction; assay: Carbachol mediated muscle contractions of rabbit bladder muscle strips; format: cell-based; details: GABA: 10 strips, not in 6 strips, baclofen: 6 strips, not in 3 strips

For `NCc1cc(=O)[nH]o1` [Muscimol, muscimol], which “inhibitory effect on nerve mediated muscle contraction” value ([1]; concentration range of 1x10⁻⁸ to 1x10⁻⁵M, n=5) is on record?
The value was “no inhibitory effect”.

`NCC(CC(=O)O)c1ccc(Cl)cc1` (racemic) [(±) baclofen] was tested. Which “inhibition of carbachol induced muscle contraction” value [2] did it give?
Its value is “able to inhibit the muscle contraction”.

What about the “EC₅₀ for inhibition of muscle contraction induced by electrical field stimulation” value [1] of the same molecule?
The value was 7.26 (±1.2)x10⁻⁶ M.

What about the “maximum inhibition of muscle contraction induced by electrical field stimulation” value [1] of the same molecule?
The value was 26.5(±1.58) %.

What about the “effect on the frequency response curve” value ([1]; 1x10⁻⁴M baclofen, n=13) of the same molecule?
Its value is “significant inhibitory effect”.

How did the EC50 ([1]; Oryctolagus cuniculus, average over seven experiments, preliminary experiments, read-out: EC₅₀ for inhibition of electrically stimulated contraction) turn out when `NCCCP(O)O` [3-aminopropylphosphonous acid] was run?
The EC50 was 250 ± 160 nM.

And the “maximum inhibition of muscle contraction induced by electrical field stimulation” value ([1]; percentage inhibition of control contraction, 10 Hz, 0.2 ms pulse width, 30V for 3 s, mean ± S.E.M.)?
The value was 45 ± 18%.

With `NCC(O)(CS(=O)(=O)O)c1ccc(Cl)cc1` (centres unmarked) [2-hydroxysaclofen] as the molecule, how does the “antagonism of the inhibition produced by GABA (change of EC₅₀)” value [1] read?
Its value is “significant antagonism”.

And the “change in the maximum response of GABA” value [1]?
The value was “no significant difference”.

With `NCCCC(=O)O` [GABA, gamma amino butyric acid] as the molecule, how does the “effect on the frequency response curve” value ([1]; 1x10⁻⁵ GABA, n=15) read?
The value was “significant right shift”.

For `NC1=N[C@H](O)[C@H]2[C@H]3O[C@]4(O)O[C@@H]([C@@H](O)[C@@]2(N1)[C@@H]4O)[C@]3(O)CO` [tetrodotoxin], which “effect on contractions obtained by electrical field stimulation” value [1] is on record?
The value was “abolishing the contractions”.
